Values joined by “and” are separate entries in the source; they are usually repeats but may differ in a detail not shown here. Identical values can stand only once. Peptide text beside a SMILES is read from it.
T1: canine PepT1 (cPepT1) (Canis lupus familiaris, UniProt Q8WMX5)
T1 construct: endogenous in cells; host or cells: MDCK (Madin-Darby Canine Kidney) cells, whole-cell [3H]-GlySar uptake
T1 sequence (Q8WMX5 1-708): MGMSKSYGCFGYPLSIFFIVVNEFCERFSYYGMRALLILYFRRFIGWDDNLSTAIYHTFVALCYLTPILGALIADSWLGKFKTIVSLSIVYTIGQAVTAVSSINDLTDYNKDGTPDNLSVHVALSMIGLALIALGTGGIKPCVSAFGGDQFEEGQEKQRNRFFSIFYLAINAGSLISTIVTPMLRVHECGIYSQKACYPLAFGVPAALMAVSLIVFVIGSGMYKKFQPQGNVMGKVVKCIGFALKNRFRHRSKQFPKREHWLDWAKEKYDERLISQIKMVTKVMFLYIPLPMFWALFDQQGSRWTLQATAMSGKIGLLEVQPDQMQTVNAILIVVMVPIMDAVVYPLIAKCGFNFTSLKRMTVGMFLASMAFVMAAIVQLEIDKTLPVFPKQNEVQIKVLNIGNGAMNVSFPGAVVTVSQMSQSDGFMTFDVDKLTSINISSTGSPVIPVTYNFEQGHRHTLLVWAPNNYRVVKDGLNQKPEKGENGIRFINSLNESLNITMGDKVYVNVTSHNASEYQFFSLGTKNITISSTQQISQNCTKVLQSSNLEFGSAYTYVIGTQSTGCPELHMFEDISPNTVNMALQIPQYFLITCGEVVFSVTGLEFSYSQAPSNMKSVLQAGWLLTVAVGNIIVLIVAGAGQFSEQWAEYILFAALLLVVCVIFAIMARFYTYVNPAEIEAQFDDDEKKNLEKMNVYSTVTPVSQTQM


Legend:
canine PepT1 (cPepT1) [1] = molecular target: T1, canine PepT1 (cPepT1); experiment: Inhibition of H+-dependent 100 μM GlySar uptake by MDCK cells cultured in LHM; type: cell-based; conditions: for % inhibition of H+-dependent GlySar uptake: 1 mM extracellular substrate, 100 μM GlySar, pH 6.0, 30 min
Description: Characteristic hallmarks of low affinity H^+/peptide cotransport activity, classically defined using membrane vesicles of several species, and more recently by functional expression studies using human, rat, and rabbit PepT1 cDNA, is the recognition of some, but not all, β-lactam antibiotics. […] To determine whether MDCK cPepT1 activity shared these functional features, the uptake of 100 μM GlySar in the absence and presence of pH 7.5 and pH 6.0 buffer, and, in pH 6.0 buffers, the presence of 1 mM additional GlySar (self-inhibitor control), 3 mM Penicillin-G, 30 μM cefadroxil, or 3 mM cefadroxil was compared (FIG. 13).
Other hallmarks of PepT1 function are the decreased ability of Gly-containing peptides to inhibit GlySar, in proportion to their length, and sensitivity to inhibition by carnosine (β-Ala-His).
Accordingly, the following general regimen was used to perform a series of experiments that evaluated the relative abilities of candidate di-(primarily) and tri-peptides to inhibit GlySar uptake by endogenously expressed cPepT1 in MDCK cells:
1. Sixty thousand cells/well were plated into collagen-coated 24-well trays and cultured at 37° C. in an atmosphere of 95% air/5% CO2 in DMEM/10% FCS that contained antibiotics for 1 day.
2. The media was removed and cells were cultured in LHM/10% FCS/antibiotics for 1 day.
3. The media was removed and cells cultured in LHM/10% FCS (no antibiotics) for 20 h.
4. The media was removed and cells cultured for 30 min in air at 37° C. in depletion medium (25 mM Hepes/Tris (pH 7.5), 140 mM NaCl, 5.4 mM KCl, 1.8 mM CaCl2, 0.8 mM MgSO4, and 5 mM glucose, to normalize intracellular nutrient pools.
(§1) 5. Transport was initiated by replacing depletion medium with uptake medium (depletion medium adjusted to pH 6.0 or kept at pH 7.4) that contained 100 μM GlySar (at a specific activity of 5 μCi/mL, with [^3H]-GlySar supplying 2.88% of total GlySar substrate) and (or) 1 mM of inhibiting peptide.
In total, 23 inhibitory peptides and 2 drug compounds were screened using this protocol.

canine PepT1 (cPepT1) [2] = molecular target: T1, canine PepT1 (cPepT1); experiment: Competitor substrate inhibition of [3H]-GlySar uptake by confluent MDCK cells (Example 1); type: cell-based; conditions: for Glysylsarcosine uptake: extracellular pH 6.0, 10 mM competitor, 2.88 [3H]-glycylsarcosine, 30 min; for inhibition of H+-dependent uptake of GlySar: 10 mM competitor; for % inhibition of pH 6.0 uptake: pH 6.0, 10 mM competitor
Description: (§2) Potential expression of PepT1 transport activity (H^+-dependent, dipeptide inhibitable, low-affinity dipeptide transport) by confluent MDCK cells was evaluated using whole-cell transport techniques and glycylsarcosine (GlySar) as a model dipeptide substrate. Cells were seeded at 60,000 cells/cm^2 into 24-well trays that had been coated with rat tail collagen or poly-L-lysine and cultured ([…]:5% CO2 at 37° C.) for 3 d in media consisting of Dulbecco's Modified Eagle Medium/10% fetal calf serum/1% antimicrobial antibacterial medium. Absorption (pmols/mg protein) of [^3H]-glycyl-L-sarcosine (GlySar, 6 mCi/mL, Moravek Biochemicals, Brea, Calif.) was determined using the 24-well cluster tray method and representative scintillation counting. Before transport, cells were incubated at 37° C. for 30 min in 25 mM Hepes/Tris (pH 7.5), 140 mM NaCl, 5.4 mM KCl, 1.8 mM CaCl2, 0.8 mM MgSO4, and 5 mM glucose (uptake buffer) to normalize intracellular amino acid and peptide pools. Transport was initiated by the addition of 0.25 mL of uptake buffer that contained 2.88 μm GlySar. After 30 min of uptake at 37° C., transport was terminated by rapid washing of cells with 4×2 mL 4° C. uptake buffer. Cellular protein was precipitated with 10% trichloroacetic acid and the supernatant recovered and counted to determine radioactivity (^3H) content. Cellular protein was then solubilized in 0.2 N NaOH and 0.2% SDS and quantified by the Lowry procedure, using bovine serum albumin as a standard. The amount of H^+-dependent GlySar absorbed was calculated as the difference between uptake in pH 6.0 and pH 7.5 uptake buffers. The amount of competitor substrate-inhibitable GlySar uptake was calculated as the quotient of GlySar uptake in the absence and presence of 10 mM competitor substrate (dipeptide or amino acid) multiplied by 100%.

canine PepT1 (cPepT1) [3] = molecular target: T1, canine PepT1 (cPepT1); experiment: Inhibition of H+-dependent 100 μM GlySar uptake by MDCK cells cultured in LHM; type: cell-based; conditions: 100 μM extracellular substrate
MDCK cells = experiment: Inhibition of H+-independent GlySar uptake by MDCK cells; type: cell-based, canine; conditions: 1 mM peptide, 100 μM GlySar
Description: as §1

[4] = substrate: CN(CC(=O)O)C(=O)CN; experiment: Characterization of GlySar uptake by MDCK cells (Km, pH gradient, time course); type: cell-based, canine; conditions: 37.0 °C
Description: as §2, with “Transport was initiated by the addition of 0.25 mL of uptake buffer that contained 2.88 μm GlySar. After 30 min of uptake at 37° C., transport was terminated by rapid washing of cells with 4×2 mL 4° C. uptake buffer.” left out
To preliminarily characterize the kinetic parameters of peptide transport by MDCK cells, the uptake of GlySar in media that contained pH 6.0 and 0.00064, 0.0025, 0.010, 0.04, 0.160, 0.640, 2.56, or 10.2 mM of GlySar was measured (FIG. 6). […]
To confirm that H^+-dependent GlySar uptake was saturable, and therefore mediated, the uptake of GlySar from pH 6.0 and 7.4 uptake buffers containing 0.025, 0.1, 0.4, 1.6, 6.4, or 25.6 mM GlySar was evaluated (FIG. 12). […]

% inhibition of H+-dependent GlySar uptake (canine PepT1 (cPepT1) [1])	Glysylsarcosine uptake (canine PepT1 (cPepT1) [2]; collagen-coated trays)	Glysylsarcosine uptake (canine PepT1 (cPepT1) [2]; poly-L-lysine-coated trays)	% inhibition of H+-dependent GlySar uptake (canine PepT1 (cPepT1) [3])	Molecule	inhibition of H+-independent GlySar uptake (MDCK cells)	other results
			62%	N[C@@H](Cc1c[nH]c2ccccc12)C(=O)N[C@@H](Cc1c[nH]c2ccccc12)C(=O)O [TrpTrp] (H-Trp-Trp-OH; N-terminus and C-terminus assumed)	about 22%	
5.0%				NCC(=O)O [Gly]		
117% and 116%	5.21 ± 0.39 pmol 30 min^−1 mg^−1 protein	3.44 ± 0.27 pmol 30 min^−1 mg^−1 protein	92% and 94%	CC(C)C[C@H](NC(=O)[C@@H](N)Cc1c[nH]c2ccccc12)C(=O)O [TrpLeu] (H-Trp-Leu-OH; N-terminus and C-terminus assumed)	36%	inhibition of H+-dependent uptake of GlySar (canine PepT1 (cPepT1) [2]; cells grown on collagen): 92%; inhibition of H+-dependent uptake of GlySar (canine PepT1 (cPepT1) [2]; cells grown on poly-lysine): 92%; % inhibition of pH 6.0 uptake (canine PepT1 (cPepT1) [2]; collagen-coated trays): 8.0%; % inhibition of pH 6.0 uptake (canine PepT1 (cPepT1) [2]; poly-L-lysine-coated trays): 8.1%
113%	7.68 ± 1.37 pmol 30 min^−1 mg^−1 protein	5.50 ± 0.58 pmol 30 min^−1 mg^−1 protein	58%	CC(C)C[C@H](N)C(=O)N[C@@H](Cc1c[nH]c2ccccc12)C(=O)O [LeuTrp]	46%	inhibition of H+-dependent uptake of GlySar (canine PepT1 (cPepT1) [2]; cells grown on collagen): 88%; inhibition of H+-dependent uptake of GlySar (canine PepT1 (cPepT1) [2]; cells grown on poly-lysine): 87%; % inhibition of pH 6.0 uptake (canine PepT1 (cPepT1) [2]; collagen-coated trays): 11.7%; % inhibition of pH 6.0 uptake (canine PepT1 (cPepT1) [2]; poly-L-lysine-coated trays): 13.0%
19%				[Gly]4 (GGGG) [positive control (model) substrate]		
50%				MetGlyMetMet (MGMM; OTHER INFORMATION: tetrapeptide)		
0%				CC1(C)S[C@@H]2[C@H](NC(=O)Cc3ccccc3)C(=O)N2[C@H]1C(=O)O [Penicillin-G]		inhibition of H+-dependent GlySar uptake (canine PepT1 (cPepT1) [1]; 3 mM Penicillin-G, 100 μM GlySar (FIG. 13)): not inhibited
				canine PepT1 (cPepT1) (Canis lupus familiaris) (protein, endogenous in cells; host or cells: MDCK (Madin-Darby Canine Kidney) cells, whole-cell [3H]-GlySar uptake) MGMSKSYGCFGYPLSIFFIVVNEFCERFSYYGMRALLILYFRRFIGWDDNLSTAIYHTFVALCYLTPILGALIADSWLGKFKTIVSLSIVYTIGQAVTAVSSINDLTDYNKDGTPDNLSVHVALSMIGLALIALGTGGIKPCVSAFGGDQFEEGQEKQRNRFFSIFYLAINAGSLISTIVTPMLRVHECGIYSQKACYPLAFGVPAALMAVSLIVFVIGSGMYKKFQPQGNVMGKVVKCIGFALKNRFRHRSKQFPKREHWLDWAKEKYDERLISQIKMVTKVMFLYIPLPMFWALFDQQGSRWTLQATAMSGKIGLLEVQPDQMQTVNAILIVVMVPIMDAVVYPLIAKCGFNFTSLKRMTVGMFLASMAFVMAAIVQLEIDKTLPVFPKQNEVQIKVLNIGNGAMNVSFPGAVVTVSQMSQSDGFMTFDVDKLTSINISSTGSPVIPVTYNFEQGHRHTLLVWAPNNYRVVKDGLNQKPEKGENGIRFINSLNESLNITMGDKVYVNVTSHNASEYQFFSLGTKNITISSTQQISQNCTKVLQSSNLEFGSAYTYVIGTQSTGCPELHMFEDISPNTVNMALQIPQYFLITCGEVVFSVTGLEFSYSQAPSNMKSVLQAGWLLTVAVGNIIVLIVAGAGQFSEQWAEYILFAALLLVVCVIFAIMARFYTYVNPAEIEAQFDDDEKKNLEKMNVYSTVTPVSQTQM		Km ([4]; other: MDCK cells seeded at 60K/well grown in LHM (FIG. 12)): 1100 µM and 1000 µM; Km ([4]; other: MDCK cells, only pH 6.0 uptake buffer, pH 6.0): 1100 µM; Km ([4]; other: confluent MDCK cells, pH 6.0 media, graphical evaluation (FIG. 6), pH 6.0): 4000 µM

Molecule	% inhibition of H+-dependent GlySar uptake (canine PepT1 (cPepT1) [1])	Glysylsarcosine uptake (canine PepT1 (cPepT1) [2]; collagen-coated trays)	Glysylsarcosine uptake (canine PepT1 (cPepT1) [2]; poly-L-lysine-coated trays)	% inhibition of H+-dependent GlySar uptake (canine PepT1 (cPepT1) [3])	inhibition of H+-independent GlySar uptake (MDCK cells)	other results
CC(C)C[C@H](N)C(=O)O [Leucine]	neither Leu nor Trp significantly influenced	63.0 ± 4.00 pmol 30 min^−1 mg^−1 protein	41.93 ± 2.70 pmol 30 min^−1 mg^−1 protein			
N[C@@H](Cc1c[nH]c2ccccc12)C(=O)O [Trp, tryptophan]	neither Leu nor Trp significantly influenced					

Source: patent US6803186B2, “Compositions and methods for increasing amino acid absorption in mammals” (The IAMS Company, priority 2001, dated 2004)
